According to patent publication US7074789B2, “Kinase inhibitors” (Amgen Inc., priority 1999, dated 2006):

Tests used:
Type in all cases: biochemical
[1] = target: T1, Src (Homo sapiens, UniProt P12931); test: Kinase inhibition assay (33P transfer), Src; conditions: Table 6, Src-1 kinase inhibition class
T1 construct: Kinases are expressed as either kinase domains or full length constructs; made in house
Outline: (§1)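 Radiometric format: recombinant tagged kinase (catalytic domain or whole protein, sometimes combined with regulatory polypeptides) phosphorylates immobilised poly(Glu,Tyr) 4:1 or poly(Arg,Ser) 3:1 using [33P]ATP. Wells are washed in 0.5% phosphoric acid, then counted. IC50 is taken where substrate labelling falls by half.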

[2] = target: T2, FGFR1 (Homo sapiens, UniProt P11362); test: Kinase inhibition assay (33P transfer), FGFR1; conditions: read-out: FGFR1-1
T2 construct: Kinases are expressed as either kinase domains or full length constructs; made in house

[3] = target: T3, EPHB4 (Homo sapiens, UniProt P54760); test: Kinase inhibition assay (33P transfer), EPHB4; conditions: read-out: EPHB4-1
T3 construct: Kinases are expressed as either kinase domains or full length constructs; made in house
T3 sequence (P54760 16-987): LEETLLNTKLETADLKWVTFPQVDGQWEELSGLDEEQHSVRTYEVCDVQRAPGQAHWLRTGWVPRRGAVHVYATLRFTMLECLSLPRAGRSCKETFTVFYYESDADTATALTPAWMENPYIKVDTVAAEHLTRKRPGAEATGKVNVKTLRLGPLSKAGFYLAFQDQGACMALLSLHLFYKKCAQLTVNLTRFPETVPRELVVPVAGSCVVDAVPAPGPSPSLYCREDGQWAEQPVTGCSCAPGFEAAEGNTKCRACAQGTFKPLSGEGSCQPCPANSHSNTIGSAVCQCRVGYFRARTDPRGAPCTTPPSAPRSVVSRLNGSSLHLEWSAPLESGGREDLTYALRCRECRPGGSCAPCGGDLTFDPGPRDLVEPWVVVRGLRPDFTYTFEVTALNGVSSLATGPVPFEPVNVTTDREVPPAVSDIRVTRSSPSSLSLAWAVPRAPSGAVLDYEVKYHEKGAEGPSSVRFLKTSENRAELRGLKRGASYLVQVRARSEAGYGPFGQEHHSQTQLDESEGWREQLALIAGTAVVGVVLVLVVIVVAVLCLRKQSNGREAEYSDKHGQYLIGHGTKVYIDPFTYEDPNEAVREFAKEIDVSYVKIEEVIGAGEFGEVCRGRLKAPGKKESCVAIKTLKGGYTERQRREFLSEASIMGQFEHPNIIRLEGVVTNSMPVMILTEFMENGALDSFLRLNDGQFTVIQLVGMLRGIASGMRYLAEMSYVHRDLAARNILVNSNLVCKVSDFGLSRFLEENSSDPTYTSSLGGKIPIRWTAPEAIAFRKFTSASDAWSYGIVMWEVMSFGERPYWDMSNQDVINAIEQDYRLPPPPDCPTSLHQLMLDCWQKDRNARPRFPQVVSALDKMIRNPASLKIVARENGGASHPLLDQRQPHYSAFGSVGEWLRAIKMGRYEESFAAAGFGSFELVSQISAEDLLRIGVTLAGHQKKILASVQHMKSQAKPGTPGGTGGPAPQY

[4] = target: T4, Tek (Homo sapiens, UniProt Q02763); test: Kinase inhibition assay (33P transfer), Tek; conditions: read-out: Tek-1
T4 construct: Kinases are expressed as either kinase domains or full length constructs; made in house
Outline: as §1

[5] = target: T5, Flt-1 (Homo sapiens, UniProt P17948); test: Kinase inhibition assay (33P transfer), Flt-1
T5 construct: Kinases are expressed as either kinase domains or full length constructs; made in house
Outline: as §1

[6] = target: T6, Hck-1 (Homo sapiens, UniProt P08631); test: Kinase inhibition assay (33P transfer), Hck; conditions: Table 6, Hck-1 kinase inhibition class
T6 construct: Kinases are expressed as either kinase domains or full length constructs; made in house

[7] = target: T7, AKT (Homo sapiens, UniProt Q9Y243); test: Kinase inhibition assay (33P transfer), AKT; conditions: Table 2, kinase inhibition class; read-out: AKT3-1
T7 construct: Kinases are expressed as either kinase domains or full length constructs; made in house
Outline: (§2)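 GST/His-tagged kinase (domain or full length; E. coli or baculovirus) + [33P]ATP on plates coated with poly(Glu,Tyr) 4:1 or poly(Arg,Ser) 3:1; incubate, wash 0.5% H3PO4, add scintillant, count.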

[8] = target: T8, PDGFRB (Homo sapiens, UniProt P09619); test: Kinase inhibition assay (33P transfer), PDGFRB; conditions: read-out: PDGFRB-1
T8 construct: Kinases are expressed as either kinase domains or full length constructs; made in house

[9] = target: T9, c-Met (Homo sapiens, UniProt P08581); test: Kinase inhibition assay (33P transfer), c-Met; conditions: Table 2, kinase inhibition class; read-out: Met-1
T9 construct: Kinases are expressed as either kinase domains or full length constructs; made in house
Outline: as §1

[10] = target: T10, Lck (Homo sapiens, UniProt P06239); test: Kinase inhibition assay (33P transfer), Lck; conditions: Table 3; read-out: Lck-1
T10 construct: Kinases are expressed as either kinase domains or full length constructs; made in house
Outline: as §2

[11] = target: T11, EGFR (Homo sapiens, UniProt P00533); test: Kinase inhibition assay (33P transfer), EGFR; conditions: Table 2, kinase inhibition class; read-out: EGFR-1
T11 construct: Kinases are expressed as either kinase domains or full length constructs; made in house
Outline: as §1

T8 sequence (P09619 33-1106, species assumed): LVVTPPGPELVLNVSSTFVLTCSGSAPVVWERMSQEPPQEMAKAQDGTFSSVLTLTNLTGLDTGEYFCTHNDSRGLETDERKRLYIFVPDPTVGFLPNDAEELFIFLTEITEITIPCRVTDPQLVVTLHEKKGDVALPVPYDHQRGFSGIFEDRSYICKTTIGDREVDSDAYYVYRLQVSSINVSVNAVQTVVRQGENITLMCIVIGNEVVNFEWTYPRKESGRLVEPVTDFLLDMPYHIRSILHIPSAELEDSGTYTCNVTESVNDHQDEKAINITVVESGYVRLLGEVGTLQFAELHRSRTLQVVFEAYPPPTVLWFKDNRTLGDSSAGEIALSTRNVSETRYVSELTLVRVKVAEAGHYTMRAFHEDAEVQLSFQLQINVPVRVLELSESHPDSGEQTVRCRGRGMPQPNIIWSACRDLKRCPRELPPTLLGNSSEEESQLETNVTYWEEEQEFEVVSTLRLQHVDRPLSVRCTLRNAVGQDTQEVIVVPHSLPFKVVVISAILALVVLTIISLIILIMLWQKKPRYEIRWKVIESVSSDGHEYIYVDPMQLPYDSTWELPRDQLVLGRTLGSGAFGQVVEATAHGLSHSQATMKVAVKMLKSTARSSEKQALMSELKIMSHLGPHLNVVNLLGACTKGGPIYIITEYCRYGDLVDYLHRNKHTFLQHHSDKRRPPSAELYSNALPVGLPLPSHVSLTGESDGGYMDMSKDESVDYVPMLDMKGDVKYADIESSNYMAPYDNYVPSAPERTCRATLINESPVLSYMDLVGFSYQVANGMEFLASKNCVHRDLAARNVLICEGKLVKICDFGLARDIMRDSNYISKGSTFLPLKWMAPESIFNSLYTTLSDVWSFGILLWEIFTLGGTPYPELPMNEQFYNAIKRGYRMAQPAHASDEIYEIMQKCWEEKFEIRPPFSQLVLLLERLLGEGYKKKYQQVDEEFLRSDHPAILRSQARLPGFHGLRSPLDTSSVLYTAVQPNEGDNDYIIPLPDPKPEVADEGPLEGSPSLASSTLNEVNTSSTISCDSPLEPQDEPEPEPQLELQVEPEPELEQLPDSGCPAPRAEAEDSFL
T11 sequence (P00533 25-1210, species assumed): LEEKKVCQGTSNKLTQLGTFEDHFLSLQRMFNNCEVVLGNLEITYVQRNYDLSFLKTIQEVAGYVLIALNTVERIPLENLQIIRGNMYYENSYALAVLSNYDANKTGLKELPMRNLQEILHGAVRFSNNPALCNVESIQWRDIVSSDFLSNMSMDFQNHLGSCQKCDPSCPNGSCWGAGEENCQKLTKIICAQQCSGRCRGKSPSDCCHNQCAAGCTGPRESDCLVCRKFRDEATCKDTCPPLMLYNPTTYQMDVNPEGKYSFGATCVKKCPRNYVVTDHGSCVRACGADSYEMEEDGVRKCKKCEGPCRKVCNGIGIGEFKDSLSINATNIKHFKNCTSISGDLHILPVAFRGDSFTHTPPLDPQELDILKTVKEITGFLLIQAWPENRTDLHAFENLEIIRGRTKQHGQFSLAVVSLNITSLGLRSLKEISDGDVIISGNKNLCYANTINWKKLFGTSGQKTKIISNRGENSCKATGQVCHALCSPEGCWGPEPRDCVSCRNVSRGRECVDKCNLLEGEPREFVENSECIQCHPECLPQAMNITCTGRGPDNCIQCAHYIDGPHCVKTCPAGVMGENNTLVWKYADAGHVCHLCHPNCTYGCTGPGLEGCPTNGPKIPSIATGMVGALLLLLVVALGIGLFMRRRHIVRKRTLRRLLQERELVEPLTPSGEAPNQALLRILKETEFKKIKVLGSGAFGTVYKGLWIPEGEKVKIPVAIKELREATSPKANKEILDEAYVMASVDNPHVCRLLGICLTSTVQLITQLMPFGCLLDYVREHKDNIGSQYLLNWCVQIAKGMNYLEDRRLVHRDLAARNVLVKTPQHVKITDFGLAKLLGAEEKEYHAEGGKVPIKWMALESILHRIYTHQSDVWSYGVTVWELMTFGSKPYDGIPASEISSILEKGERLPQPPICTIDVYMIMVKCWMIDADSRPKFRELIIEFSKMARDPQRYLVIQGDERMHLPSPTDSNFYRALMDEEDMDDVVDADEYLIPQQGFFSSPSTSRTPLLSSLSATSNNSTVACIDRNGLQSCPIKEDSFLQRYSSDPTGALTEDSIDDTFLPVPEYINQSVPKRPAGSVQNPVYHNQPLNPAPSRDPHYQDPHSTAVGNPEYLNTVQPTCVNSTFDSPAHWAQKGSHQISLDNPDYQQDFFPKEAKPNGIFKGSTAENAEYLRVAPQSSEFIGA
T1 sequence (P12931 whole entry, species assumed, the tested form may be a part): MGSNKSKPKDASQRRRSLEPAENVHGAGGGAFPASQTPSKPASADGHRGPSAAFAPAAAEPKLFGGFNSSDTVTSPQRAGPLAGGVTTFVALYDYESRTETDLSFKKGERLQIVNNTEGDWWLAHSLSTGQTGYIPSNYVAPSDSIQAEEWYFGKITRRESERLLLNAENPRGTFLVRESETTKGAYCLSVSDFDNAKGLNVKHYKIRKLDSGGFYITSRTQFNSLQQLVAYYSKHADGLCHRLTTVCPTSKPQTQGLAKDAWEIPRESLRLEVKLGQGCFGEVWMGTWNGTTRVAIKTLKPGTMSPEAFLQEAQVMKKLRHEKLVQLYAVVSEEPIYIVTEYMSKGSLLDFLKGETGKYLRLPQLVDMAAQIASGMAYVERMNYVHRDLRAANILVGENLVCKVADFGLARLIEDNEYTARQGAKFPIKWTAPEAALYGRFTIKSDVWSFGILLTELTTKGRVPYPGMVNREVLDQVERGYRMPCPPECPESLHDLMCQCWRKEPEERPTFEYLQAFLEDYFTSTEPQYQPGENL
T7 sequence (Q9Y243 whole entry, the tested form may be a part): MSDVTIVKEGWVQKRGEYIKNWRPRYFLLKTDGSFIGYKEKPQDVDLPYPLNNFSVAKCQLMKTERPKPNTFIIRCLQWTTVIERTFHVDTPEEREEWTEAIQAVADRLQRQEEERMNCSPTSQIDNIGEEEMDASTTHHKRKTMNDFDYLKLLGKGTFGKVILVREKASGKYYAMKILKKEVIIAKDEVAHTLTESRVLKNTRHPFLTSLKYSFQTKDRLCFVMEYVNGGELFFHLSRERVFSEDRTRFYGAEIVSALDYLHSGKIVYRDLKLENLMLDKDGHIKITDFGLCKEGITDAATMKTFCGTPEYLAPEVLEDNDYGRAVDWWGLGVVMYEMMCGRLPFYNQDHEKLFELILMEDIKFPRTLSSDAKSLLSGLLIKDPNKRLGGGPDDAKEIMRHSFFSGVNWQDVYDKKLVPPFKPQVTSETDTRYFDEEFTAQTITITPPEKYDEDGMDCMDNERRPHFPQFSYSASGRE
T6 sequence (P08631 whole entry, the tested form may be a part): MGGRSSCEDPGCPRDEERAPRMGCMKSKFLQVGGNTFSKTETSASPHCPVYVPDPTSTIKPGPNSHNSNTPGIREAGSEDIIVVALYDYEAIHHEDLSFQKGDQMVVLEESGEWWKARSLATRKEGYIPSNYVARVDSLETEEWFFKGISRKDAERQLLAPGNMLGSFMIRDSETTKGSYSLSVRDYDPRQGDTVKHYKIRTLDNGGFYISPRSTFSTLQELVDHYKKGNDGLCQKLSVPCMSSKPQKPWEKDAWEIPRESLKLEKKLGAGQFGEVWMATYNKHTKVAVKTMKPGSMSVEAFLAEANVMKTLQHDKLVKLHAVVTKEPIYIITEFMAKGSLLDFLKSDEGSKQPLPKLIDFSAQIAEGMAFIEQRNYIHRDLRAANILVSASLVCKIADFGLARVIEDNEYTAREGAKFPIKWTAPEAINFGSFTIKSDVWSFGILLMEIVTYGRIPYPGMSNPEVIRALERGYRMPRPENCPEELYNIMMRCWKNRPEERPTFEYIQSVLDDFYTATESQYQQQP
T10 sequence (P06239 whole entry, species assumed, the tested form may be a part): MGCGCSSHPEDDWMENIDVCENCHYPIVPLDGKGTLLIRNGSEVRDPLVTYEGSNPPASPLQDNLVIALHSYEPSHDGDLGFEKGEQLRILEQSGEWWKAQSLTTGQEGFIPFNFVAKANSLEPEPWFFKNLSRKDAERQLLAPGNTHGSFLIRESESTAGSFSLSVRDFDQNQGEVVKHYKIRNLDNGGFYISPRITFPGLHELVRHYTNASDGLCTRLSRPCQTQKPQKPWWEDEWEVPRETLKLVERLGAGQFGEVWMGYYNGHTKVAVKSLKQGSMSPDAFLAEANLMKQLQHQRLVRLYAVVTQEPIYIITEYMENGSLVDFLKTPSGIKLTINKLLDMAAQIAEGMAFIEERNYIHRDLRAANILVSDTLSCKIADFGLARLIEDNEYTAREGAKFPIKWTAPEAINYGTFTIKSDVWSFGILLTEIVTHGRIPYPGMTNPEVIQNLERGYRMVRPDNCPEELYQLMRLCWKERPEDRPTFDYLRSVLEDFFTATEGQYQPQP

| IC50 [1] | IC50 [2] | IC50 [3] | IC50 [4] | IC50 [5] | IC50 [6] | IC50 [7] | IC50 [8] | IC50 [9] | IC50 [10] | IC50 [11] | SMILES |
| --- | --- | --- | --- | --- | --- | --- | --- | --- | --- | --- | --- |
| < 1.08 µM | < 1.08 µM | < 1.08 µM | > 12.2 µM | < 1.08 µM | 1.08 to 6.5 µM | > 12.2 µM | < 1.08 µM | > 12.2 µM | 1.08 to 6.5 µM | < 1.08 µM | COc1cc(Nc2ncnc(Nc3cccc(O)c3)n2)cc(OC)c1OC [Compound 78] |
| – | < 1.03 µM | 1.03 to 6.19 µM | > 11.6 µM | < 1.03 µM | – | > 11.6 µM | < 1.03 µM | 9.02 to 11.6 µM | 1.03 to 6.19 µM | 1.03 to 6.19 µM | COc1cc(Nc2ncnc(Nc3ccc(Cl)cc3)n2)cc(OC)c1OC [Compound 72] |
| > 12.2 µM | – | > 12.2 µM | > 12.2 µM | – | > 12.2 µM | > 12.2 µM | – | > 12.2 µM | 1.09 to 6.51 µM | 6.51 to 9.5 µM | COc1cccc(-c2ncnc(Nc3cc(OC)c(OC)c(OC)c3)n2)c1 [Compound 232] |
| > 9.31 µM | < 0.827 µM | > 9.31 µM | > 9.31 µM | < 0.827 µM | > 9.31 µM | > 9.31 µM | 0.827 to 4.96 µM | > 9.31 µM | 4.96 to 7.24 µM | > 9.31 µM | COc1cc(Nc2ncnc(-n3c(Nc4cccc(C)c4)nc4ccccc43)n2)cc(OC)c1OC [Compound 386] |
| > 9.31 µM | < 0.827 µM | > 9.31 µM | > 9.31 µM | < 0.827 µM | > 9.31 µM | > 9.31 µM | < 0.827 µM | > 9.31 µM | 0.827 to 4.96 µM | > 9.31 µM | COc1cc(Nc2ncnc(-n3c(Nc4ccc(C)cc4)nc4ccccc43)n2)cc(OC)c1OC [Compound 385] |

The remaining lines, values behind:

| SMILES | IC50 [1] | IC50 [2] | IC50 [3] | IC50 [4] | IC50 [5] | IC50 [6] | IC50 [7] | IC50 [8] | IC50 [9] | IC50 [10] | IC50 [11] |
| --- | --- | --- | --- | --- | --- | --- | --- | --- | --- | --- | --- |
| COc1cc(Nc2ncnc(-n3c(Cl)nc4ccccc43)n2)cc(OC)c1OC [Compound 378] | 5.81 to 8.48 µM | < 0.969 µM | > 10.9 µM | 8.48 to 10.9 µM | 0.969 to 5.81 µM | > 10.9 µM | > 10.9 µM | 0.969 to 5.81 µM | 0.969 to 5.81 µM | 5.81 to 8.48 µM | > 10.9 µM |
| COc1cc(Nc2ncnc(Nc3cc(-c4ccco4)n[nH]3)n2)cc(OC)c1 [Compound 365] | 1.05 to 6.33 µM | 1.05 to 6.33 µM | 1.05 to 6.33 µM | > 11.9 µM | 1.05 to 6.33 µM | > 11.9 µM | 6.33 to 9.23 µM | 6.33 to 9.23 µM | < 1.05 µM | 1.05 to 6.33 µM | 1.05 to 6.33 µM |
| COC(=O)c1cccc(Nc2ncnc(Nc3cc(-c4ccco4)n[nH]3)n2)c1 [Compound 344] | > 11.9 µM | < 1.06 µM | 1.06 to 6.36 µM | > 11.9 µM | 6.36 to 9.27 µM | > 11.9 µM | > 11.9 µM | 6.36 to 9.27 µM | 1.06 to 6.36 µM | 1.06 to 6.36 µM | > 11.9 µM |
| COc1cc(Nc2ncnc(Nc3ccc(Oc4ccccc4)cc3)n2)cc(OC)c1OC [Compound 29] | < 0.898 µM | < 0.898 µM | > 10.1 µM | > 10.1 µM | < 0.898 µM | > 10.1 µM | > 10.1 µM | 0.898 to 5.39 µM | 7.86 to 10.1 µM | < 0.898 µM | < 0.898 µM |
| COc1cc(Nc2ncnc(Nc3ccc(C(N)=O)cc3)n2)cc(OC)c1OC [Compound 33] | 1.01 to 6.05 µM | 6.05 to 8.83 µM | > 11.4 µM | > 11.4 µM | > 11.4 µM | > 11.4 µM | > 11.4 µM | 8.83 to 11.4 µM | > 11.4 µM | 8.83 to 11.4 µM | > 11.4 µM |
